This is an account of results in patent US20150150893A1, “ANDROGRAPHOLIDE ANALOGS AND THEIR USE FOR MEDICATION” (LIAONING LIFENG SCIENTIFIC & TECHNOLOGY DEVELOPMENT COMPANY …, priority 2012, published 2015).

Holding throughout (type): cell-based
Assay [1] relates to Japanese encepahalitis virus. The following applies: read-out: In-Vitro Antiviral Screening Result (EC50) C.
In the next assay the test system is Rift Valley fever virus. In words: microbe, parasite or virus in culture. The settings on record: read-out: In-Vitro Antiviral Screening Result (EC50) E.
For another assay, the system named is SARS coronavirus. Kind of assay: microbe, parasite or virus in culture. The settings on record: Severe acute respiratory syndrome coronavirus, read-out: In-Vitro Antiviral Screening Result (EC50) F.
In assay [2] the test system is Venezuelan equine encephalitis virus. In words: microbe, parasite or virus in culture. The settings on record: read-out: In-Vitro Antiviral Screening Result (EC50) G.
Another assay has as its system Influenza A virus H1N1. Kind of assay: microbe, parasite or virus in culture. The following applies: H1N1, read-out: In-Vitro Antiviral Screening Result (EC50) H.
Another assay concerns many virus. Kind of assay: Antivirus studies in vitro, summary over the virus panel. The settings on record: read-out: EC50 against many virus. The protocol: compounds were diluted to 20 mg/mL in DMSO then prepared in for log 10 dilutions of 100 μg/mL down to 0.1 μg/mL) in MEM solution with 50 μg/mL gentamicin and 2% FBS. Each dilution was added to 5 wells of a 96-well plate with 80-100% confluent cells. Three wells of each dilution were infected with virus, and two wells remained uninfected as toxicity controls. The multiplicity of infection (MOI) was as low as possible to achieve CPE within 3-5 days of incubation. A known active compound was tested in parallel as a control. After untreated virus control wells reached maximum cytopathic effect (CPE), each well was scored microscopically. Plates were then stained with neutral red dye for approximately 2 hours, then supernatant dye was removed from the wells and the incorporated dye was extracted in 50:50 Sorensen citrate buffer/ethanol, then the optical density was read on a spectrophotometer.

The EC50 is the concentration needed to bring the measured effect to its halfway point. `CN1C(=O)CN2C=C(/C=C3C=C(/C=C/C4C5(CCC6[C@]4(C)CC[C@@H](O)[C@@]6(C)CO)CO5)C(=O)O\3)C=CC21` (stereo partly drawn) [Example 68, 11,12-dedihydro-14-deoxy-(E)-15-((1-methyl-2-oxo-1,2,3,8a-tetrahydroimidazo[1,2-a]pyridin-6-yl)methylene)-8,17-epoxyandrographolide]: the concentration for a half-maximal effect (EC50) in assay [1] is below 50 µg/mL; in the assay with Rift Valley fever virus, above 100 µg/mL; in the assay with SARS coronavirus, below 50 µg/mL; in assay [2], below 50 µg/mL; in the assay on Influenza A virus H1N1, above 100 µg/mL; in the assay with many virus, below 50 µg/mL.

In the case of `C[C@]12CC[C@@H](O)[C@@](C)(CO)C1CCC1(CO1)C2/C=C/C1=CC(=C\c2cnc(N3CCCC3CO)nc2)/OC1=O` (stereo partly drawn) [Example 69, 11,12-dedihydro-14-deoxy-(E)-15-((2-(2-(hydroxymethyl)pyrrolidin-1-yl)pyrimidin-5-yl)methylene)-8,17-epoxyandrographolide], the concentration giving a half-maximal response (EC50) was above 100 µg/mL in assay [1]; below 50 µg/mL in the assay on Rift Valley fever virus; below 50 µg/mL in the assay on SARS coronavirus; above 100 µg/mL in assay [2]; below 100 µg/mL with Influenza A virus H1N1; below 50 µg/mL in the assay with many virus.

Consider `CN1CCN(c2ccc(/C=C3C=C(/C=C/C4C5(CCC6[C@]4(C)CC[C@@H](O)[C@@]6(C)CO)CO5)C(=O)O\3)cc2)CC1` (stereo partly drawn) [Example 71, 11,12-dedihydro-14-deoxy-(E)-15-(4-(4-methylpiperazin-1-yl)benzylidene)-8,17-epoxyandrographolide], for which the EC50 in assay [1] was below 50 µg/mL; in the assay on Rift Valley fever virus it was above 100 µg/mL; in the assay with SARS coronavirus it was below 100 µg/mL; in assay [2], below 50 µg/mL; with Influenza A virus H1N1, below 100 µg/mL; with many virus it was below 50 µg/mL.

Consider `CN(C)c1ccc(/C=C2C=C(/C=C/C3C4(CO4)C(N4CCOCC4)CC4[C@]3(C)CC[C@@H](O)[C@@]4(C)CO)C(=O)O\2)cc1` (stereo partly drawn) [Example 76, 7-(4-morpholino)-11,12-dedihydro-14-deoxy-15-(4-(dimethylamino)benzylidene)andrographolide], for which the concentration giving a half-maximal response (EC50) in assay [1] is above 100 µg/mL; in the assay with Rift Valley fever virus it was below 100 µg/mL; in the assay on SARS coronavirus it was below 50 µg/mL; in assay [2], above 100 µg/mL; in the assay with Influenza A virus H1N1, below 100 µg/mL; with many virus it was below 50 µg/mL.

As for `C[C@]12CC[C@@H](O)[C@@](C)(CO)C1CCC1(CO1)C2/C=C/C1=CC(=C\c2ccc(-n3ccnc3)cc2)/OC1=O` (stereo partly drawn) [Example 77, 11,12-dedihydro-14-deoxy-(E)-15-(4-(1H-imidazol-1-yl)benzylidene)-8,17-epoxyandrographolide], the half-maximal effective concentration (EC50) in assay [1] was below 100 µg/mL; in the assay on Rift Valley fever virus, below 50 µg/mL; with SARS coronavirus, below 100 µg/mL; in assay [2] it was above 100 µg/mL; with Influenza A virus H1N1, below 100 µg/mL; in the assay on many virus, below 50 µg/mL.

For `CN(C)c1ccc(/C=C2C=C(/C=C/C3C4(CCC5[C@]3(C)CC[C@@H](O)[C@@]5(C)CO)CO4)C(=O)O\2)c(O)c1` (stereo partly drawn) [Example 78], the EC50 in assay [1] was below 100 µg/mL; in the assay on Rift Valley fever virus, below 100 µg/mL; with SARS coronavirus, below 50 µg/mL; in assay [2], below 100 µg/mL; in the assay with Influenza A virus H1N1, above 100 µg/mL; in the assay with many virus, below 50 µg/mL.

With `C=C1CCC2[C@](C)(CC[C@@H](O)[C@@]2(C)CO)C1/C=C/C1=CC(=C\c2ccc(-n3ccnc3)cc2)/OC1=O` (stereo partly drawn) [Example 79, 11,12-dedihydro-14-deoxy-(E)-15-(4-(1H-imidazol-1-yl)benzylidene)andrographolide], the concentration for a half-maximal effect (EC50) (in assay [1]; in the assay on Rift Valley fever virus; in the assay with SARS coronavirus; in assay [2]; in the assay on Influenza A virus H1N1; in the assay with many virus) was below 50 µg/mL in each case.

As for `CC(=O)OCC1(C)C(OC(C)=O)CCC2(C)C(/C=C/C3=CCOC3=O)C3C(=Nc4cncn43)CC12` (stereo not drawn) [Example 95], the EC50 in assay [1] is above 100 µg/mL; in the assay with Rift Valley fever virus, above 100 µg/mL; in the assay on SARS coronavirus, below 50 µg/mL; in assay [2], below 100 µg/mL; in the assay on Influenza A virus H1N1, below 50 µg/mL; in the assay on many virus it was below 50 µg/mL.

Consider `C=C1C(N2CCOCC2)CC2[C@](C)(CC[C@@H](O)[C@@]2(C)CO)C1/C=C/C1=CC(=C\c2ccc(N(C)C)cc2)/OC1=O` (stereo partly drawn) [Example 124], for which the EC50 in assay [1] was below 50 µg/mL; in the assay with Rift Valley fever virus, below 50 µg/mL; in the assay on SARS coronavirus, below 50 µg/mL; in assay [2], below 50 µg/mL; with Influenza A virus H1N1, below 100 µg/mL; with many virus, below 50 µg/mL.

Take `C=C1C(NC(C)C(=O)NC2=NCC=N2)CC2[C@](C)(CC[C@@H](O)[C@@]2(C)CO)C1/C=C/C1=CC(=C\c2ccc(N(C)C)cc2)/OC1=O` (stereo partly drawn) [Example 188]: the EC50 in assay [1] is below 100 µg/mL; in the assay with Rift Valley fever virus, below 100 µg/mL; in the assay with SARS coronavirus, below 50 µg/mL; in assay [2] it was below 100 µg/mL; with Influenza A virus H1N1, above 100 µg/mL; in the assay on many virus it was below 50 µg/mL.
